These results are taken from patent US12616701B2, “Solid state forms of Resmetirom” (ASSIA CHEMICAL INDUSTRIES LTD., priority 2020, dated 2026).

A short description of data set [1]: Hygroscopicity of the crystalline form. The class given is physicochemical. As to conditions: crystalline solid form.
Data set [2] can be described thus: Polymorphic stability at relative humidity, room temperature. The class given is physicochemical. The following applies: for at least 7 days.

Structures can show the parent of a compound that is named as a salt.

In the case of `CC(C)c1cc(Oc2c(Cl)cc(-n3nc(C#N)c(=O)[nH]c3=O)cc2Cl)n[nH]c1=O` [Form RC2-B, Resmetirom:caffeine], in data set [1], the hygroscopicity entry is recorded as “non-hygroscopic”. Besides, in data set [2], the “relative humidity up to which the form is polymorphically stable” value (“relative humidity up” for short) is listed as “up to 80 % relative humidity”.

For the molecule `CC(C)c1cc(Oc2c(Cl)cc(-n3nc(C#N)c(=O)[nH]c3=O)cc2Cl)n[nH]c1=O` [Form R2-A, Resmetirom piperazine salt], in data set [1], the hygroscopicity entry was “non-hygroscopic”. For the same molecule, the “relative humidity up” value in data set [2] is “up to 100 % relative humidity”.

As for `CC(C)c1cc(Oc2c(Cl)cc(-n3nc(C#N)c(=O)[nH]c3=O)cc2Cl)n[nH]c1=O` [Form R3-A, Resmetirom:L-proline], in data set [1], the hygroscopicity entry is recorded as “non-hygroscopic”. Moreover, in data set [2], the “relative humidity up” value is recorded as “up to 80 % relative humidity”.

As to `CC(C)c1cc(Oc2c(Cl)cc(-n3nc(C#N)c(=O)[nH]c3=O)cc2Cl)n[nH]c1=O` [Form 20, 2-[3,5-dichloro-4-[(6-oxo-5-propan-2-yl-1H-pyridazin-3-yl)oxy]phenyl]-3,5-dioxo-1,2,4-triazine-6-carbonitrile], in data set [1], the hygroscopicity result was “non-hygroscopic”. Besides, the “relative humidity up” value in data set [2] is given as “up to 80 % relative humidity”.

On to `CC(C)c1cc(Oc2c(Cl)cc(-n3nc(C#N)c(=O)[nH]c3=O)cc2Cl)n[nH]c1=O` [Form RC2-A, Resmetirom:caffeine], for which the hygroscopicity result in data set [1] is recorded as “non-hygroscopic”. Moreover, the “relative humidity up” value in data set [2] is reported as “up to 100 % relative humidity”.

For `CC(C)c1cc(Oc2c(Cl)cc(-n3nc(C#N)c(=O)[nH]c3=O)cc2Cl)n[nH]c1=O` [Form RC1-A, Resmetirom:nicotinamide], in data set [1], the hygroscopicity result is listed as “non-hygroscopic”. Besides, the “relative humidity up” value in data set [2] is listed as “up to 80 % relative humidity”.
